The molecules below were run against recombinant human MGAT2 (Homo sapiens (Human), UniProt Q3SYC2) (assay: Measurement of human MGAT2 inhibitory activity). Conditions: read-out: IC50 (concentration exhibiting 50% enzyme inhibition), Table 52.
Chain of recombinant human MGAT2 (Q3SYC2 whole entry): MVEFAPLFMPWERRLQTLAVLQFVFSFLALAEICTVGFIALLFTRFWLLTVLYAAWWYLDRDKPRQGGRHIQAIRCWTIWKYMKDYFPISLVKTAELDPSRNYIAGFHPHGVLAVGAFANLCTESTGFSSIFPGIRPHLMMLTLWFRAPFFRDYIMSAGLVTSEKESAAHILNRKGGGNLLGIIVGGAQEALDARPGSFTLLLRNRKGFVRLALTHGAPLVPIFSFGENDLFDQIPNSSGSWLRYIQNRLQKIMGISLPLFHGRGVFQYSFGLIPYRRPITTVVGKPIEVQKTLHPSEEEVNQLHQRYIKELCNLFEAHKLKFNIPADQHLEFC
Format: biochemical
Protocol: A full-length human MGAT2 gene to which a Flag-tag had been added at the N-terminal was inserted into pFastBac (from Invitrogen). A recombinant baculovirus was produced in accordance with the protocol for a Bac-to-Bac baculovirus expression system (produced by Invitrogen), and Sf-9 cells were infected therewith. The cells were collected and sonicated, and then the membrane fraction was collected through centrifugation. Western blotting analysis with an anti-Flag antibody was performed for the membrane fraction to confirm expression, and the membrane fraction was used as a recombinant human MGAT2 enzyme solution.
Solutions of the compounds of the present invention in DMSO were each aliquoted into 0.2-μL portions in a 384-well polystyrene microplate produced by Corning Incorporated, and 5 μL of an enzyme solution prepared with an assay buffer (100 mmol/L phosphate buffer (pH 7.4) containing 2 mmol/L DTT) and 5 μL of a substrate solution (100 mmol/L phosphate buffer (pH 7.4), 30 μmol/L 2-Oleoylglycerol, 10 μmol/L Oleoyl-CoA) were added thereto, and the resultant was stirred and centrifuged, and incubated in a moist chamber at room temperature for 1 hour. After enzymatic reaction, 50 μL of a quenching solution (containing 0.2 μmol/L Diolein-d5, 0.4% formic acid, and 50% isopropanol) containing Internal Standard (IS) was added to terminate the reaction, and the resultant was sealed in a plate produced by Shimadzu GLC Ltd., and then stirred and centrifuged, and measurement was performed by using an electrospray ionization method with a RapidFire360 and Agilent 6550 Q-TOF mass spectrometer. Diolein as a reaction product (P) of 2-Oleoylglycerol as the substrate and an ammonium adduct ion of the IS were detected, and the peak intensity ratio, P/IS, was calculated from the peak heights to evaluate the inhibitory activity. Inhibitory activities with/without addition of enzyme were defined as Control (+)/Control (−), respectively, and the respective % inhibitions were defined as 0% inhibition and 100% inhibition. The inhibitory activity was calculated from formula below with TIBCO Spotfire (produced by TIBCO Software Inc.): Inhibitory activity (%)=[1−{Sample−Control(−)}/{Control(+)−Control(−)}]*100 where Sample indicates a peak intensity ratio: P/IS, when the compound of the present invention was added.
With `O=C(Nc1nn(CCC2CC2)c2c1C(=O)N[C@@]1(CCc3cc(OCCCC(F)(F)F)ccc31)C2)c1ccno1` [Compound I-1] the IC50 was 540 nM. Molecule `CS(=O)(=O)CC(=O)Nc1c2c(nn1CCC1CC1)C[C@]1(CCc3cc(OCCCC(F)(F)F)ccc31)NC2=O` [Compound I-2] has an IC50 of 1.35 nM. `CS(=O)(=O)CC(=O)Nc1c2c(nn1CCC1CC1)C[C@]1(CCc3cc(C4CC4)ccc31)NC2=O` [Compound I-3] gave an IC50 of 9.22 nM. `CC(=O)Nc1c2c(nn1CCC1CC1)C[C@]1(CCc3cc(OCCCC(F)(F)F)ccc31)NC2=O` [Compound I-4] showed an IC50 of 330 nM. In the case of `CS(=O)(=O)CC(=O)Nc1nn(CCC2CC2)c2c1C(=O)N[C@@]1(CCc3cc(OCCCC(F)(F)F)ccc31)C2` [Compound I-5], the IC50 is reported as 500 nM. Work on `CS(=O)(=O)CC(=O)Nc1c2c(nn1CCC1CC1)C[C@]1(CCc3cc(C(F)(F)F)ccc31)NC2=O` [Compound I-6] yielded an IC50 of 11.9 nM. For `CS(=O)(=O)CC(=O)Nc1c2c(nn1CCC1CC1)C[C@]1(CCc3cc(OCC(F)F)ccc31)NC2=O` [Compound I-7], the IC50 was 15 nM. `O=C1N[C@@]2(CCc3cc(OCCCC(F)(F)F)ccc32)Cc2nn(CCC3CC3)c(C(=O)O)c21` [Compound I-9] was tested, and the IC50 was 70 nM. `CNC(=O)c1c2c(nn1CCC1CC1)C[C@]1(CCc3cc(OCCCC(F)(F)F)ccc31)NC2=O` [Compound I-11] was tested, and the IC50 was 500 nM. `CNS(=O)(=O)Nc1c2c(nn1CCC1CC1)C[C@]1(CCc3cc(OCCCC(F)(F)F)ccc31)NC2=O` [Compound I-13] gave an IC50 of 90 nM. With `CC(C)NC(=O)Nc1c2c(nn1CCC1CC1)C[C@]1(CCc3cc(OCCCC(F)(F)F)ccc31)NC2=O` [Compound I-14] the IC50 was 380 nM. Work on `COc1ccccc1C(=O)Nc1c2c(nn1CCC1CC1)C[C@]1(CCc3cc(OCCCC(F)(F)F)ccc31)NC2=O` [Compound I-15] yielded an IC50 of 280 nM. In the case of `O=C(Nc1c2c(nn1CCC1CC1)C[C@]1(CCc3cc(OCCCC(F)(F)F)ccc31)NC2=O)c1ccc(F)cc1` [Compound I-16], the IC50 is reported as 150 nM. `COc1cccc(C(=O)Nc2c3c(nn2CCC2CC2)C[C@]2(CCc4cc(OCCCC(F)(F)F)ccc42)NC3=O)c1` [Compound I-17] showed an IC50 of 160 nM. Work on `O=C(Nc1c2c(nn1CCC1CC1)C[C@]1(CCc3cc(OCCCC(F)(F)F)ccc31)NC2=O)c1ccno1` [Compound I-18] yielded an IC50 of 9.1 nM. `O=C(Nc1c2c(nn1CCC1CC1)C[C@]1(CCc3cc(OCCCC(F)(F)F)ccc31)NC2=O)c1ccccc1` [Compound I-19] showed an IC50 of 38 nM. In the case of `O=C(CC(F)F)Nc1c2c(nn1CCC1CC1)C[C@]1(CCc3cc(OCCCC(F)(F)F)ccc31)NC2=O` [Compound I-20], the IC50 is reported as 21 nM. Work on `CS(=O)(=O)CC(=O)NCc1c2c(nn1CCC1CC1)C[C@]1(CCc3cc(OCCCC(F)(F)F)ccc31)NC2=O` [Compound I-21] yielded an IC50 of 17 nM. In the case of `CS(=O)(=O)NCc1c2c(nn1CCC1CC1)C[C@]1(CCc3cc(OCCCC(F)(F)F)ccc31)NC2=O` [Compound I-22], the IC50 is reported as 190 nM. For `N#CCC(=O)Nc1c2c(nn1CCC1CC1)C[C@]1(CCc3cc(OCCCC(F)(F)F)ccc31)NC2=O` [Compound I-25], the IC50 was 49 nM. `O=C(CC(F)(F)F)Nc1c2c(nn1CCC1CC1)C[C@]1(CCc3cc(OCCCC(F)(F)F)ccc31)NC2=O` [Compound I-26] was tested, and the IC50 was 15 nM. With `O=C(CN1CCCC1=O)Nc1c2c(nn1CCC1CC1)C[C@]1(CCc3cc(OCCCC(F)(F)F)ccc31)NC2=O` [Compound I-27] the IC50 was 600 nM. With `CC(=O)NCC(=O)Nc1c2c(nn1CCC1CC1)C[C@]1(CCc3cc(OCCCC(F)(F)F)ccc31)NC2=O` [Compound I-28] the IC50 was 435 nM. Work on `COCC(=O)Nc1c2c(nn1CCC1CC1)C[C@]1(CCc3cc(OCCCC(F)(F)F)ccc31)NC2=O` [Compound I-29] yielded an IC50 of 113 nM. `Cn1cc(CC(=O)Nc2c3c(nn2CCC2CC2)C[C@]2(CCc4cc(OCCCC(F)(F)F)ccc42)NC3=O)cn1` [Compound I-30] was tested, and the IC50 was 175 nM.

Same assay, conditions: read-out: IC50 (concentration exhibiting 50% enzyme inhibition), Table 53
`Cc1ccc(-n2nc3c(c2NC(=O)CS(C)(=N)=O)C(=O)N[C@@]2(CCc4cc(OCC(F)(F)F)ccc42)C3)nc1` (single isomer, unassigned) [II-275] showed an IC50 of 6.15 nM.

Reference: patent US11198695B2, “Fused ring derivative having MGAT-2 inhibitory activity” (Shionogi & Co., Ltd., priority 2017, dated 2021)
